Patent publication US6664231B1, “Anti-fungal peptides” (priority 1993, dated 2003)
Square brackets hold non-standard residues; d marks the D form. Ends that are not written are not given here. Peptide text beside a SMILES is read from it. Phe(4-NH2) = Nc1ccc(C[C@H](N)C(=O)O)cc1; 1Nal = N[C@@H](Cc1cccc2ccccc12)C(=O)O; 2Nal = N[C@@H](Cc1ccc2ccccc2c1)C(=O)O; d2Nal = N[C@H](Cc1ccc2ccccc2c1)C(=O)O; NMeL = CN[C@@H](CC(C)C)C(=O)O; pGlu = O=C1CC[C@@H](C(=O)O)N1; Aib = CC(C)(N)C(=O)O

Tested on: C. albicans (CA-1, Strain SLU-1)
Test: Radial diffusion assay
Assay type: cell-based, Candida albicans
Conditions: HPLC-purified peptide; nanomoles required to achieve a net 30 mm^2 zone (log titration curve)
How it was run: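 Yeast at 1×10^6 CFU/mL in agarose underlayer (3% Sabouraud, 10 mM sodium phosphate pH 7.4); 2-fold peptide dilutions in D-PBS from ~1 mg/mL loaded into wells, 3 h at 37° C, then nutrient overlayer overnight. Value: pmol/well giving 30 mm^2 net clear zone, by PROBIT regression.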

Molecule	Plate Assay (nmol), pure peptide activity [nmol]
CC[C@H](C)[C@H](NC(=O)[C@H](CC(C)C)NC(=O)[C@H](Cc1c[nH]c2ccccc12)NC(=O)[C@@H](N)CCCCN)C(=O)N[C@@H](CCC(N)=O)C(=O)N[C@@H](CC(C)C)C(=O)N[C@@H](Cc1ccccc1)C(=O)N[C@@H](Cc1c[nH]cn1)C(=O)N[C@@H](CCCCN)C(N)=O [Peptide 297]	0.564
H-KVKWLIQL-NH2 [Peptide 300]	0.993
H-KVKWLIQLFHK-NH2 [Peptide 288]	0.279
H-KWLIQLFH-NH2 [Peptide 302]	2.07
H-KVKWLIQLF-NH2 [Peptide 295]	>2.612

Same assay, conditions: crude peptide; nanomoles required to achieve a net 30 mm^2 zone (log titration curve)

Molecule	Plate Assay (nmol), crude peptide activity [nmol]
H-KVKWLI-NH2 [compound 313]	>11.05
CC[C@H](C)[C@H](NC(=O)[C@H](CC(C)C)NC(=O)[C@H](Cc1c[nH]c2ccccc12)NC(=O)[C@@H](N)CCCCN)C(=O)N[C@@H](CCC(N)=O)C(=O)N[C@@H](CC(C)C)C(=O)N[C@@H](Cc1ccccc1)C(=O)N[C@@H](Cc1c[nH]cn1)C(=O)N[C@@H](CCCCN)C(N)=O [Peptide 297]	1.817
H-VKWLIQLFH-NH2 [Peptide 296]	>5.573
H-SKVKWLI-NH2 [Peptide 305]	>10.228
H-KVKWLIQL-NH2 [Peptide 300]	1.957
H-KVKWLIQLFHK-NH2 [Peptide 288]	3.639
H-SKVKWLIQLF-NH2 [Peptide 290]	>2.233
H-KWLIQLFH-NH2 [Peptide 302]	>5.497
H-KVKWLIQLF-NH2 [Peptide 295]	>1.977
H-LIQLFHK-NH2 [Peptide 310]	>9.475

Same assay, conditions: pmoles of peptide added to well to achieve a 30 mm^2 zone, PROBIT analysis; crude or purified (P′) peptide

Molecule	C. albicans pmol/30 mm^2 zone
CC[C@H](C)[C@H](NC(=O)[C@H](CC(C)C)NC(=O)C(C)(C)NC(=O)CNC(=O)[C@@H](NC(=O)[C@H](CCCCN)NC(=O)[C@H](CO)NC(=O)[C@@H](N)CCCCN)C(C)C)C(=O)N[C@@H](CCC(N)=O)C(=O)N[C@@H](CC(C)C)C(=O)N[C@@H](Cc1ccccc1)C(=O)N[C@@H](Cc1c[nH]cn1)C(=O)N[C@@H](CCCCN)C(=O)N[C@@H](CCCCN)C(N)=O [XMP.257] (H-KSKVG[Aib]LIQLFHKK-NH2)	1,321 pmol/30 mm^2 zone
CC[C@H](C)[C@H](NC(=O)[C@H](CC(C)C)NC(=O)[C@H](Cc1ccc2ccccc2c1)NC(=O)CNC(=O)[C@@H](NC(=O)[C@H](CCCCN)NC(=O)[C@H](CO)NC(=O)[C@@H](N)CCCCN)C(C)C)C(=O)N[C@@H](CCC(N)=O)C(=O)N[C@@H](CC(C)C)C(=O)N[C@@H](Cc1ccccc1)C(=O)N[C@@H](Cc1c[nH]cn1)C(=O)N[C@@H](CCCCN)C(=O)N[C@@H](CCCCN)C(N)=O [XMP.130] (H-KSKVG[2Nal]LIQLFHKK-NH2)	1159 pmol/30 mm^2 zone
XMP.341: PYR - PYR - 153-157 - PYR - PYR (SEQ ID NO:172) ([pGlu][pGlu]WLIQL[pGlu][pGlu]; not fully specified; printed as PYR - PYR - 153-157 - PYR - PYR)	b (No detectable activity up to 5 μg/well)
CC[C@H](C)[C@H](NC(=O)[C@H](CC(C)C)NC(=O)[C@@H](C)NC(=O)CNC(=O)[C@@H](NC(=O)[C@H](CCCCN)NC(=O)[C@H](CO)NC(=O)[C@@H](N)CCCCN)C(C)C)C(=O)N[C@@H](CCC(N)=O)C(=O)N[C@@H](CC(C)C)C(=O)N[C@@H](Cc1ccccc1)C(=O)N[C@@H](Cc1c[nH]cn1)C(=O)N[C@@H](CCCCN)C(=O)N[C@@H](CCCCN)C(N)=O [XMP.252] (H-KSKVG[dA]LIQLFHKK-NH2)	1,613 pmol/30 mm^2 zone
H-SKVKWLIQ-NH2 [XMP.299]	>8,768 pmol/30 mm^2 zone
H-KSKVKALIQLFHKK-NH2 [XMP.161]	>2999 pmol/30 mm^2 zone
CC[C@H](C)[C@H](NC(=O)[C@H](CC(C)C)NC(=O)[C@@H](Cc1c[nH]c2ccccc12)NC(=O)CNC(=O)[C@@H](NC(=O)[C@H](CCCCN)NC(=O)[C@H](CO)NC(=O)[C@@H](N)CCCCN)C(C)C)C(=O)N[C@@H](CCC(N)=O)C(=O)N[C@@H](CC(C)C)C(=O)N[C@@H](Cc1ccccc1)C(=O)N[C@@H](Cc1c[nH]cn1)C(=O)N[C@@H](CCCCN)C(=O)N[C@@H](CCCCN)C(N)=O [XMP.126] (H-KSKVG[dW]LIQLFHKK-NH2)	1404 pmol/30 mm^2 zone
H-KWLIQLFH-NH2 [XMP.302]	>5,497 pmol/30 mm^2 zone
CC[C@H](C)[C@H](NC(=O)[C@H](CC(C)C)NC(=O)[C@@H](Cc1ccc2ccccc2c1)NC(=O)CNC(=O)[C@@H](NC(=O)[C@H](CCCCN)NC(=O)[C@H](CO)NC(=O)[C@@H](N)CCCCN)C(C)C)C(=O)N[C@@H](CCC(N)=O)C(=O)N[C@@H](CC(C)C)C(=O)N[C@@H](Cc1ccccc1)C(=O)N[C@@H](Cc1c[nH]cn1)C(=O)N[C@@H](CCCCN)C(=O)N[C@@H](CCCCN)C(N)=O [XMP.131] (H-KSKVG[d2Nal]LIQLFHKK-NH2)	2493 pmol/30 mm^2 zone
H-KVKWLIQLFH-NH2 [XMP.291]	>5,039 pmol/30 mm^2 zone
H-KSKVGWLAQLFHKK-NH2 [XMP.38]	391 pmol/30 mm^2 zone
H-KSKVGWLILLFHKK-NH2 [XMP.86]	>2048 pmol/30 mm^2 zone
XMP.382: K - K - L - L - Q - L - L - K - K (SEQ ID NO:213) (KKLLQLLKK)	1,437 pmol/30 mm^2 zone
CC[C@H](C)[C@H](NC(=O)[C@H](CC(C)C)NC(=O)[C@H](Cc1c[nH]c2ccccc12)NC(=O)CNC(=O)[C@@H](NC(=O)[C@H](CCCCN)NC(=O)[C@H](CO)NC(=O)[C@@H](N)CCCCN)C(C)C)C(=O)N[C@@H](CCC(N)=O)C(=O)N[C@@H](CC(C)C)C(=O)N[C@@H](Cc1c[nH]c2ccccc12)C(=O)N[C@@H](Cc1c[nH]cn1)C(=O)N[C@@H](CCCCN)C(=O)N[C@@H](Cc1cccc2ccccc12)C(N)=O [XMP.230] (H-KSKVGWLIQLWHK[1Nal]-NH2)	>2,386 pmol/30 mm^2 zone
CC[C@H](C)[C@H](NC(=O)[C@H](CC(C)C)NC(=O)[C@H](CC(C)C)N(C)C(=O)CNC(=O)[C@@H](NC(=O)[C@H](CCCCN)NC(=O)[C@H](CO)NC(=O)[C@@H](N)CCCCN)C(C)C)C(=O)N[C@@H](CCC(N)=O)C(=O)N[C@@H](CC(C)C)C(=O)N[C@@H](Cc1ccccc1)C(=O)N[C@@H](Cc1c[nH]cn1)C(=O)N[C@@H](CCCCN)C(=O)N[C@@H](CCCCN)C(N)=O [XMP.261] (H-KSKVG[NMeL]LIQLFHKK-NH2)	867 pmol/30 mm^2 zone
CC[C@H](C)[C@H](NC(=O)[C@H](CC(C)C)NC(=O)[C@H](Cc1cccc2ccccc12)NC(=O)CNC(=O)[C@@H](NC(=O)[C@H](CCCCN)NC(=O)[C@H](CO)NC(=O)[C@@H](N)CCCCN)C(C)C)C(=O)N[C@@H](CCC(N)=O)C(=O)N[C@@H](Cc1cccc2ccccc12)C(=O)N[C@@H](Cc1ccccc1)C(=O)N[C@@H](Cc1c[nH]cn1)C(=O)N[C@@H](CCCCN)C(=O)N[C@@H](CCCCN)C(N)=O [XMP.223] (H-KSKVG[1Nal]LIQ[1Nal]FHKK-NH2)	b (No detectable activity up to 5 μg/well)
H-LIQLFHKK-NH2 [XMP.304]	>8,290 pmol/30 mm^2 zone
CC[C@H](C)[C@H](NC(=O)[C@H](CC(C)C)NC(=O)[C@H](Cc1c[nH]c2ccccc12)NC(=O)[C@H](CCCCN)NC(=O)[C@@H](N)CCCCN)C(=O)N[C@@H](CCC(N)=O)C(=O)N[C@@H](CC(C)C)C(=O)N[C@@H](CCCCN)C(N)=O [XMP.326]	2,182 pmol/30 mm^2 zone
H-KSKVGILIQLFHKK-NH2 [XMP.251]	1,289 pmol/30 mm^2 zone
H-KSKVKVLIQLFHKK-NH2 [XMP.266]	984 pmol/30 mm^2 zone
H-KSKVKVAIQLFHKK-NH2 [XMP.269]	635 pmol/30 mm^2 zone
CC[C@H](C)[C@H](NC(=O)[C@H](CC(C)C)NC(=O)[C@@H](Cc1ccc2ccccc2c1)NC(=O)CNC(=O)[C@@H](NC(=O)[C@H](CCCCN)NC(=O)[C@H](CO)NC(=O)[C@@H](N)CCCCN)C(C)C)C(=O)N[C@@H](CC(C)C)C(=O)N[C@@H](CC(C)C)C(=O)N[C@@H](Cc1c[nH]c2ccccc12)C(=O)N[C@@H](Cc1c[nH]cn1)C(=O)N[C@@H](CCCCN)C(=O)N[C@@H](CCCCN)C(N)=O [XMP.244] (H-KSKVG[d2Nal]LILLWHKK-NH2)	859 pmol/30 mm^2 zone
H-KSKVKWAIQLFHKK-NH2 [XMP.267]	256 pmol/30 mm^2 zone
CC[C@H](C)[C@H](NC(=O)[C@H](CC(C)C)NC(=O)[C@H](Cc1c[nH]c2ccccc12)NC(=O)[C@H](Cc1ccc(N)cc1)NC(=O)[C@@H](NC(=O)[C@H](CCCCN)NC(=O)[C@H](CO)NC(=O)[C@@H](N)CCCCN)C(C)C)C(=O)N[C@@H](CCC(N)=O)C(=O)N[C@@H](Cc1cccc2ccccc12)C(=O)N[C@@H](Cc1ccccc1)C(=O)N[C@@H](Cc1c[nH]cn1)C(=O)N[C@@H](CCCCN)C(=O)N[C@@H](CCCCN)C(N)=O [XMP.236] (H-KSKV[Phe(4-NH2)]WLIQ[1Nal]FHKK-NH2)	>2,631 pmol/30 mm^2 zone
H-WLIQLFH-NH2 [XMP.309]	b (No detectable activity up to 5 μg/well)
H-SKVKWLI-NH2 [XMP.305]	>10,228 pmol/30 mm^2 zone
H-VKWLIQLF-NH2 [XMP.301]	b (No detectable activity up to 5 μg/well)
CC[C@H](C)[C@H](NC(=O)[C@H](CC(C)C)NC(=O)[C@H](Cc1c[nH]c2ccccc12)NC(=O)[C@H](Cc1ccc(N)cc1)NC(=O)[C@@H](NC(=O)[C@H](CCCCN)NC(=O)[C@H](CO)NC(=O)[C@@H](N)CCCCN)C(C)C)C(=O)N[C@@H](CCC(N)=O)C(=O)N[C@@H](CC(C)C)C(=O)N[C@@H](Cc1c[nH]c2ccccc12)C(=O)N[C@@H](Cc1c[nH]cn1)C(=O)N[C@@H](CCCCN)C(=O)N[C@@H](CCCCN)C(N)=O [XMP.240] (H-KSKV[Phe(4-NH2)]WLIQLWHKK-NH2)	>2,802 pmol/30 mm^2 zone

Same assay, conditions: pmoles of peptide added to well to achieve a 30 mm^2 zone, PROBIT analysis; crude or purified (P′) peptide; listed as XMP.267P′

Molecule	C. albicans pmol/30 mm^2 zone [pmol/30 mm^2 zone]
H-KSKVKWAIQLFHKK-NH2 [XMP.267]	106

Same assay, conditions: pmoles of peptide added to well to achieve a 30 mm^2 zone, PROBIT analysis; crude or purified (P′) peptide; listed as XMP.302P′

Molecule	C. albicans pmol/30 mm^2 zone
H-KWLIQLFH-NH2 [XMP.302]	2,070 pmol/30 mm^2 zone
